Source: US10689354B2, “Aminoazole derivative” (Teijin Pharma Limited, priority 2015, dated 2020)

How the values were obtained:
[1] = target: T1, androgen receptor (AR-LBD) (Rattus norvegicus, UniProt P15207); assay: Evaluation of androgen receptor affinity (PolarScreen Androgen Receptor Competitor Assay Kit, Red; fluorescence polarization); settings: 22° C. for 5 hours, relative to binding rate of 1 μM DHT, read-out: AR affinity (pEC50) (converted)
T1 construct: 5 μL of 2×AR-LBD/Fluoromone AL Red Complex contained in the kit; purchased Invitrogen
T1 sequence (P15207 651-882 limits assumed): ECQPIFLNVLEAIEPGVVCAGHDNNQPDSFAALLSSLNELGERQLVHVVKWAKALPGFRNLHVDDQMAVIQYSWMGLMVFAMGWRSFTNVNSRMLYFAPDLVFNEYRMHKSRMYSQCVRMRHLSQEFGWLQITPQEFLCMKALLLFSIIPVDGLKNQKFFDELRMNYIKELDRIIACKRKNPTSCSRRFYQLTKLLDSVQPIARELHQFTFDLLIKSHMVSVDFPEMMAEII
Summary of the method: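 Fluorescence polarization competition assay: compound was incubated in duplicate with the kit's AR-LBD/Fluoromone AL Red complex for 5 h at 22 °C. Binding was expressed relative to 1 μM DHT, and pEC50 was derived by 4-parameter fit.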

human androgen receptor = target: T2, human androgen receptor (Homo sapiens, UniProt P10275); assay: Reporter assay of an androgen receptor responsive sequence (luciferase, transiently transfected HEK293 cells); assay type: cell-based; settings: 24 hours incubation, relative to activity of 100 nM DHT, read-out: AR transcriptive activity (pEC50) (converted)
T2 construct: expressed in transfected cells; host or cells: HEK293
T2 sequence (P10275 1-920): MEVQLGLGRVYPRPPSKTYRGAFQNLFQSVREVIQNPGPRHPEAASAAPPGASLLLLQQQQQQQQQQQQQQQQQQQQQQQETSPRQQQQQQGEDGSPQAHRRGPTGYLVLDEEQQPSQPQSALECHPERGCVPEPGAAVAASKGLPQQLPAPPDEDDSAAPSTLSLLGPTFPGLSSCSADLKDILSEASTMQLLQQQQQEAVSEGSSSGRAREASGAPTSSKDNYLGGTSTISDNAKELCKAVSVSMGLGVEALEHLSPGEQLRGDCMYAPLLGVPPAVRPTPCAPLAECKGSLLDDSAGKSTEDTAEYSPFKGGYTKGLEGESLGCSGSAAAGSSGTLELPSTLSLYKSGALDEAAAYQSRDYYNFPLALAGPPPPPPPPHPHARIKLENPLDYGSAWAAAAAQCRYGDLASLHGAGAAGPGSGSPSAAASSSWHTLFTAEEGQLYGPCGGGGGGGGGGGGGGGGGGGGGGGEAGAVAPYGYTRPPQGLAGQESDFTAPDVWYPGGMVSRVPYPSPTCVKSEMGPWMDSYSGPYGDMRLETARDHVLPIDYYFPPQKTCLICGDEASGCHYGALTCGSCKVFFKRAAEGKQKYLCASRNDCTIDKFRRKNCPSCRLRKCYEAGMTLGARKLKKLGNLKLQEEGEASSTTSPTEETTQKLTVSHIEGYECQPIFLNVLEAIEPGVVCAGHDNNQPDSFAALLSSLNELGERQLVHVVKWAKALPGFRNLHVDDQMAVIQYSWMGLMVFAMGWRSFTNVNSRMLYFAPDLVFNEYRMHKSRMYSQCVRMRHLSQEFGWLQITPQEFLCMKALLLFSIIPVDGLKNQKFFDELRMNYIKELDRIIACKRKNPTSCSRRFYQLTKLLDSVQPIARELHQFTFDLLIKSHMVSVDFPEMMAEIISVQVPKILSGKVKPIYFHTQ
Summary of the method: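 HEK293 cells transiently transfected for 3 h with ARE-firefly luciferase, full-length human AR and TK-Renilla plasmids, then exposed to compound for 24 h at 37 °C in 5% charcoal-treated FBS/DMEM. Dual-Glo luminescence read; pEC50 from 4-parameter fit relative to 100 nM DHT.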

| EC50 [1] [nM] | EC50 (human androgen receptor) [nM] | SMILES |
| --- | --- | --- |
| 50.1 | 316 | Cc1sc(N(CCc2ccc(Cl)cc2)Cc2cccc(OC(F)(F)F)c2)nc1C(=O)NS(C)(=O)=O [Compound 145, 2-[2-(4-chlorophenyl)ethyl-[[3-(trifluoromethoxy)phenyl]methyl]amino]-5-methyl-N-methylsulfonyl-thiazole-4-carboxamide] |
| > 2000 | > 10000 | Cc1sc(N(CCc2cccnc2)Cc2ccccc2)nc1C(=O)NS(C)(=O)=O [Compound 147, 2-[benzyl-[2-(3-pyridyl)ethyl]amino]-5-methyl-N-methylsulfonyl-thiazole-4-carboxamide] |
| 25.1 | 100 | Cc1sc(N(CCc2ccc(F)c(F)c2)Cc2ccccc2)nc1C(=O)NS(C)(=O)=O [Compound 148, 2-[benzyl-[2-(3,4-difluorophenyl)ethyl]amino]-5-methyl-N-methylsulfonyl-thiazole-4-carboxamide] |
| 100 | 631 | Cc1sc(N(CCc2ccc(Cl)cc2)Cc2ccc(Cl)cn2)nc1C(=O)NS(C)(=O)=O [Compound 158, 2-[2-(4-chlorophenyl)ethyl-[(5-chloro-2-pyridyl)methyl]amino]-5-methyl-N-methylsulfonyl-thiazole-4-carboxamide] |
| 63.1 | 398 | Cc1sc(N(CCc2ccc(OC(F)F)cc2)Cc2ccc(F)cc2)nc1C(=O)NS(C)(=O)=O [Compound 159, 2-[2-[4-(difluoromethoxy)phenyl]ethyl-[(4-fluorophenyl)methyl]amino]-5-methyl-N-methylsulfonyl-thiazole-4-carboxamide] |
| 100 | 501 | Cc1sc(N(CCc2ccc(OC(F)F)cc2)Cc2ccccc2)nc1C(=O)NS(C)(=O)=O [Compound 160, 2-[benzyl-[2-[4-(difluoromethoxy)phenyl]ethyl]amino]-5-methyl-N-methylsulfonyl-thiazole-4-carboxamide] |
| 126 | 501 | Cc1sc(N(CCc2ccc(Cl)cc2)Cc2nc(C3CC3)no2)nc1C(=O)NS(C)(=O)=O [Compound 161, 2-[2-(4-chlorophenyl)ethyl-[(3-cyclopropyl-1,2,4-oxadiazol-5-yl)methyl]amino]-5-methyl-N-methylsulfonyl-thiazole-4-carboxamide] |
| 158 | 1000 | Cc1sc(N(CCc2ccc(OC(F)F)cc2)Cc2nc(C3CC3)no2)nc1C(=O)NS(C)(=O)=O [Compound 162, 2-[(3-cyclopropyl-1,2,4-oxadiazol-5-yl)methyl-[2-[4-(difluoromethoxy)phenyl]ethyl]amino]-5-methyl-N-methylsulfonyl-thiazole-4-carboxamide] |
| 25.1 | 251 | Cc1sc(N(CCc2ccc(C#N)cc2)Cc2ccc(OC(F)(F)F)cc2)nc1C(=O)NS(C)(=O)=O [Compound 323, 2-[2-(4-cyanophenyl)ethyl-[[4-(trifluoromethoxy)phenyl]methyl]amino]-5-methyl-N-methylsulfonyl-thiazole-4-carboxamide] |

The next lines start with the compound.

| SMILES | EC50 [1] [nM] | EC50 (human androgen receptor) [nM] |
| --- | --- | --- |
| Cc1sc(N(Cc2ccc(Cl)cn2)c2ccc(C#N)cc2)nc1C(=O)NS(C)(=O)=O [Compound 152, 2-[N-[(5-chloro-2-pyridyl)methyl]-4-cyano-anilino]-5-methyl-N-methylsulfonyl-thiazole-4-carboxamide] | 200 | 100 |
| Cc1sc(N(Cc2ccc(Br)cn2)c2ccc(C#N)cc2)nc1C(=O)NS(C)(=O)=O [Compound 153, 2-[N-[(5-bromo-2-pyridyl)methyl]-4-cyano-anilino]-5-methyl-N-methylsulfonyl-thiazole-4-carboxamide] | 100 | 50.1 |
| Cc1sc(N(Cc2ccc(C(F)(F)F)nc2)c2ccc(C#N)cc2)nc1C(=O)NS(C)(=O)=O [Compound 154, 2-[4-cyano-N-[[6-(trifluoromethyl)-3-pyridyl]methyl]anilino]-5-methyl-N-methylsulfonyl-thiazole-4-carboxamide] | 200 | 200 |
| Cc1sc(N(Cc2ccc(C(F)F)c(F)c2)c2ccc(C#N)cc2)nc1C(=O)NS(C)(=O)=O [Compound 155, 2-[4-cyano-N-[[4-(difluoromethyl)-3-fluoro-phenyl]methyl]anilino]-5-methyl-N-methylsulfonyl-thiazole-4-carboxamide] | 31.6 | 15.8 |
| Cc1sc(N(Cc2ccc(C(F)F)cc2F)c2ccc(C#N)cc2)nc1C(=O)NS(C)(=O)=O [Compound 156, 2-[4-cyano-N-[[4-(difluoromethyl)-2-fluoro-phenyl]methyl]anilino]-5-methyl-N-methylsulfonyl-thiazole-4-carboxamide] | 39.8 | 63.1 |
| COCCCS(=O)(=O)NC(=O)c1nc(N(Cc2ccc(OC(F)(F)F)cc2)c2ccc(C#N)cc2)sc1C [Compound 157, 2-[4-cyano-N-[[4-(trifluoromethoxy)phenyl]methyl]anilino]-N-(3-methoxypropylsulfonyl)-5-methyl-thiazole-4-carboxamide] | 31.6 | 200 |
| COCCCS(=O)(=O)NC(=O)c1nc(N(Cc2ccc(Cl)cn2)c2ccc(C#N)cc2)sc1C [Compound 163, 2-[N-[(5-chloro-2-pyridyl)methyl]-4-cyano-anilino]-N-(3-methoxypropylsulfonyl)-5-methyl-thiazole-4-carboxamide] | 200 | 251 |
| COCCCS(=O)(=O)NC(=O)c1nc(N(Cc2ccc(C(F)(F)F)nc2)c2ccc(C#N)cc2)sc1C [Compound 164, 2-[4-cyano-N-[[6-(trifluoromethyl)-3-pyridyl]methyl]anilino]-N-(3-methoxypropylsulfonyl)-5-methyl-thiazole-4-carboxamide] | 251 | 631 |
| Cc1sc(N(CCc2ccc(C#N)cc2)Cc2ccc(Cl)cc2)nc1C(=O)NS(=O)(=O)Cc1cccnc1 [Compound 321, 2-[(4-chlorophenyl)methyl-[2-(4-cyanophenyl)ethyl]amino]-5-methyl-N-(3-pyridylmethylsulfonyl)thiazole-4-carboxamide] | 20 | 100 |
| Cc1sc(N(CCc2ccc(C#N)cc2)Cc2ccc(Cl)cc2)nc1C(=O)NS(=O)(=O)Cc1cccc(F)c1 [Compound 322, 2-[(4-chlorophenyl)methyl-[2-(4-cyanophenyl)ethyl]amino]-N-[(3-fluorophenyl)methylsulfonyl]-5-methyl-thiazole-4-carboxamide] | 63.1 | > 10000 |
| Cc1sc(N(CCc2ccc(C#N)cc2)Cc2ccc(OC(F)(F)F)cc2)nc1C(=O)NS(=O)(=O)Cc1cccnc1 [Compound 324, 2-[2-(4-cyanophenyl)ethyl-[[4-(trifluoromethoxy)phenyl]methyl]amino]-5-methyl-N-(3-pyridylmethylsulfonyl)thiazole-4-carboxamide] | 20 | 100 |
| Cc1sc(N(CCC2CCCCC2)Cc2ccc(Cl)cc2)nc1C(=O)NS(=O)(=O)Cc1cccnc1 [Compound 325, 2-[(4-chlorophenyl)methyl-(2-cyclohexylethyl)amino]-5-methyl-N-(3-pyridylmethylsulfonyl)thiazole-4-carboxamide] | 31.6 | 398 |
| Cc1sc(N(CCn2cc(C#N)cn2)Cc2ccccc2)nc1C(=O)NS(C)(=O)=O [Compound 326, 2-[benzyl-[2-(4-cyanopyrazol-1-yl)ethyl]amino]-5-methyl-N-methylsulfonyl-thiazole-4-carboxamide] | 631 | 1000 |
| Cc1sc(N(Cc2ccccc2)CC(F)(F)c2ccc(Cl)cc2)nc1C(=O)NS(C)(=O)=O [Compound 329, 2-[benzyl-[2-(4-chlorophenyl)-2,2-difluoro-ethyl]amino]-5-methyl-N-methylsulfonyl-thiazole-4-carboxamide] | 126 | 3980 |
